Data: patent US9115374B2, “SYN3 compositions and methods” (MERCK SHARP & DOHME CORP., priority 2001, dated 2015)

Assay: Stability of lyophilized formulations of SYN3, concentration by HPLC after reconstitution
Format: physicochemical
Conditions: in the dehydrated powder at 40° C.
Procedure: Stability testing of the resultant lyophilized products of Examples 13, 14 and 15 yielded the following results:
Stability testing was accomplished by HPLC. Lyophilized formulations were reconstituted (redissolved) with 19.5 ml WFI. Samples were placed in the indicated temperature conditions, incubated for specified times and concentrations were determined by HPLC and compared to initial concentrations.

SMILES: C[C@H](CCC(=O)NCCCN(CCCNC(=O)[C@H](O)[C@@H](O)[C@H](O[C@@H]1O[C@H](CO)[C@H](O)[C@H](O)[C@H]1O)[C@H](O)CO)C(=O)CC[C@@H](C)[C@H]1CC[C@H]2[C@@H]3[C@H](O)C[C@@H]4C[C@H](O)CC[C@]4(C)[C@H]3C[C@H](O)[C@]12C)[C@H]1CC[C@H]2[C@@H]3[C@H](O)C[C@@H]4C[C@H](O)CC[C@]4(C)[C@H]3C[C@H](O)[C@]12C [SYN3, (N —(3-cholamidopropyl)—N —(3-lactobionamidopropyl))-cholamide]
- time SYN3 remains stable: at least 3 months
